Measured values as given in patent US10927098B2, “Hydroxyalkyl-substituted triazole derivatives and uses thereof” (Bayer Pharma Aktiengesellschaft, priority 2016, dated 2021).
pIC50: −log10 of the molar value.

How the values were obtained:
human V1a receptor = target: T1, human V1a receptor (Homo sapiens, UniProt P37288); experiment: Cellular in vitro assay for determining vasopressin receptor activity, V1a receptor cell line (aequorin luminescence); type: cell-based; details: for pIC50: CHO cell line transfected with the human V1a receptor, [Arg8]-vasopressin at EC50 concentration, read-out: IC50 hV1a; for ratio IC50 hV2/hV1a: ratio of the IC50 values at human V2 and human V1a receptor
T1 construct: expressed in transfected cells; host or cells: CHO K1 (ATCC), also stably transfected with a modified aequorin
T1 sequence (P37288 whole entry): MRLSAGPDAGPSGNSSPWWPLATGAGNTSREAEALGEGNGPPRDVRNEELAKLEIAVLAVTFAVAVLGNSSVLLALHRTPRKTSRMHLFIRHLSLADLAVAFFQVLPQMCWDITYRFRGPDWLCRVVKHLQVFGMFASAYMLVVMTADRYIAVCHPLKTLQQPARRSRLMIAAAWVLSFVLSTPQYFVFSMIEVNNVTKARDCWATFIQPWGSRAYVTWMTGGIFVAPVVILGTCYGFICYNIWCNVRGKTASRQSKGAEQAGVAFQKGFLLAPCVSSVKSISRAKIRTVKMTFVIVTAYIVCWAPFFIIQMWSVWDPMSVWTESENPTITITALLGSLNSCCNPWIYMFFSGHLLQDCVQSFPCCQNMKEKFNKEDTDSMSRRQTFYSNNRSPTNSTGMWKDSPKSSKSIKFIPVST
Procedure: (§1) B-1. Cellular In Vitro Assay for Determining Vasopressin Receptor Activity
(§2) The identification of agonists and antagonists of the V1a and V2 vasopressin receptors from humans, rats and dogs as well as the quantification of the activity of the compounds of the invention is carried out using recombinant cell lines. These cell lines originally derive from a hamster's ovary epithelial cell (Chinese Hamster Ovary, CHO K1, ATCC: American Type Culture Collection, Manassas, Va. 20108, USA). The test cell lines constitutively express the human, rat or dog V1a or V2 receptors. In case of the Gαq-coupled V1a receptors, cells are also stably transfected with a modified form of the calcium-sensitive photoproteins aequorin (human and rat V1a) or obelin (dog Via), which, after reconstitution with the cofactor coelenterazine, emit light when there are increases in free calcium concentrations [Rizzuto R, Simpson A W, Brini M, Pozzan T, Nature 358, 325-327 (1992); Illarionov B A, Bondar V S, Illarionova V A, Vysotski E S, Gene 153 (2), 273-274 (1995)]. The resulting vasopressin receptor cells react to stimulation of the recombinantly expressed V1a receptors by intracellular release of calcium ions, which can be quantified by the resulting photoprotein luminescence. The Gs-coupled V2 receptors are stably transfected into cell lines expressing the gene for firefly luciferase under control of a CRE-responsible promoter. Activation of V2 receptors induces the activation of the CRE-responsive promoter via cAMP increase, thereby inducing the expression of firefly luciferase. The light emitted by photoproteins of V1a cell lines as well as the light emitted by firefly luciferase of V2 cell lines corresponds to the activation or inhibition of the respective vasopressin receptor. The bioluminescence of the cell lines is detected using a suitable luminometer [Milligan G, Marshall F, Rees S, Trends in Pharmacological Sciences 17, 235-237 (1996)].
Vasopressin V1a Receptor Cell Lines:
On the day before the assay, the cells are plated out in culture medium (DMEM/F12, 2% FCS, 2 mM glutamine, 10 mM HEPES, 5 μg/ml coelenterazine) in 384-well microtiter plates and kept in a cell incubator (96% humidity, 5% v/v CO2, 37° C.). On the day of the assay, test compounds in various concentrations are placed for 10 minutes in the wells of the microtiter plate before the agonist [Arg^8]-vasopressin at EC50 concentration is added. The resulting light signal is measured immediately in a luminometer.
(§3) Table 1A below lists individual IC50 values for the compounds of the invention (including racemic mixtures as well as separated enantiomers) that were obtained from cell lines transfected with the human V1a or V2 receptor: […]

human V2 receptor = target: T2, human V2 receptor (Homo sapiens, UniProt P30518); experiment: Cellular in vitro assay for determining vasopressin receptor activity, V2 receptor cell line (CRE-luciferase); type: cell-based; details: CHO cell line transfected with the human V2 receptor; [Arg8]-vasopressin at EC50 concentration; read-out: IC50 hV2
T2 construct: expressed in transfected cells; host or cells: CHO K1 (ATCC) expressing firefly luciferase under a CRE-responsive promoter
T2 sequence (P30518 whole entry): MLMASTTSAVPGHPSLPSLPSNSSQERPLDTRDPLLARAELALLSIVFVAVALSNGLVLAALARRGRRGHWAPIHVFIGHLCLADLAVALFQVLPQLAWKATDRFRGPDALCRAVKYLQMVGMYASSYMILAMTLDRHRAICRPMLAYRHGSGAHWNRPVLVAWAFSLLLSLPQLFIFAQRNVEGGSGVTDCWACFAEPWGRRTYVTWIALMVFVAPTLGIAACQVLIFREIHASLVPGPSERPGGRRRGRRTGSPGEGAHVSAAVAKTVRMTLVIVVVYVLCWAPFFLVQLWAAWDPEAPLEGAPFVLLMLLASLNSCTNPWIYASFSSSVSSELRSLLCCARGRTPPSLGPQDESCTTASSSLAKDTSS
Procedure: as §1, §2
Vasopressin V2 Receptor Cell Lines:
On the day before the assay, the cells are plated out in culture medium (DMEM/F12, 2% FCS, 2 mM glutamine, 10 mM HEPES) in 384-well microtiter plates and kept in a cell incubator (96% humidity, 5% v/v CO2, 37° C.). On the day of the assay, test compounds in various concentrations and the agonist [Arg^8]-vasopressin at EC50 concentration are added together to the wells, and plates are incubated for 3 hours in a cell incubator. Upon addition of the cell lysis reagent Triton™ and the substrate luciferin, luminescence of firefly luciferase is measured in a luminometer.
as §3

| pIC50 (human V1a receptor) | ratio IC50 hV2/hV1a (human V1a receptor) | pIC50 (human V2 receptor) | SMILES |
| --- | --- | --- | --- |
| 8.46 | 7.6 | 7.58 | CC(O)(C(=O)O)c1nc(Cn2nc(-c3ccc(Cl)cc3)n(C[C@H](O)C(F)(F)F)c2=O)nn1-c1ccccc1Cl (single isomer, unassigned) [Example 15] |
| 9.10 | 6.4 | 8.29 | CC(C)C(O)c1nc(Cn2nc(-c3ccc(Cl)cc3)n(C[C@H](O)C(F)(F)F)c2=O)nn1-c1ccccc1Cl (mixture of isomers) [Example 7, 5-(4-Chlorophenyl)-2-{[1-(2-chlorophenyl)-5-(1-hydroxy-2-methylpropyl)-1H-1,2,4-triazol-3-yl]methyl}-4-[(2S)-3,3,3-trifluoro-2-hydroxypropyl]-2,4-dihydro-3H-1,2,4-triazol-3-one] |
| 9.15 | 6.7 | 8.33 | CCC(O)c1nc(Cn2nc(-c3ccc(Cl)cc3)n(C[C@H](O)C(F)(F)F)c2=O)nn1-c1ccccc1Cl (mixture of isomers) [Example 4, 5-(4-Chlorophenyl)-2-{[1-(2-chlorophenyl)-5-(1-hydroxypropyl)-1H-1,2,4-triazol-3-yl]methyl}-4-[(2S)-3,3,3-trifluoro-2-hydroxypropyl]-2,4-dihydro-3H-1,2,4-triazol-3-one] |
| 7.66 | 0.2 | 8.48 | CC(C)(O)c1nc(Cn2nc(-c3ccc(Cl)cc3)n(C[C@H](O)C(F)(F)F)c2=O)nn1-c1cccc(Cl)c1 [Example 2, 5-(4-Chlorophenyl)-2-{[1-(3-chlorophenyl)-5-(2-hydroxypropan-2-yl)-1H-1,2,4-triazol-3-yl]methyl}-4-[(2S)-3,3,3-trifluoro-2-hydroxypropyl]-2,4-dihydro-3H-1,2,4-triazol-3-one] |
| 8.66 | 15.8 | 7.46 | O=c1n(Cc2nc(C(O)C(F)(F)F)n(-c3cccc(Cl)c3)n2)nc(-c2ccc(Cl)cc2)n1C[C@H](O)C(F)(F)F (single isomer, unassigned) [Example 12] |
| 9.22 | 3.7 | 8.66 | CC(C)C(O)c1nc(Cn2nc(-c3ccc(Cl)cc3)n(C[C@H](O)C(F)(F)F)c2=O)nn1-c1ccccc1Cl (single isomer, unassigned) [Example 8] |
| 9.15 | 12.0 | 8.08 | CCC(O)c1nc(Cn2nc(-c3ccc(Cl)cc3)n(C[C@H](O)C(F)(F)F)c2=O)nn1-c1ccccc1Cl (single isomer, unassigned) [Example 6] |
| 7.78 | 4.6 | 7.12 | CC(O)(C(=O)O)c1nc(Cn2nc(-c3ccc(Cl)cc3)n(C[C@H](O)C(F)(F)F)c2=O)nn1-c1ccccc1Cl (mixture of isomers) [Example 14, 2-[1-(2-Chlorophenyl)-3-({3-(4-chlorophenyl)-5-oxo-4-[(2S)-3,3,3-trifluoro-2-hydroxypropyl]-4,5-dihydro-1H-1,2,4-triazol-1-yl}methyl)-1H-1,2,4-triazol-5-yl]-2-hydroxypropanoic acid] |
| 7.83 | 0.1 | 8.74 | O=c1n(Cc2nc(C(O)C(F)(F)F)n(-c3cccc(Cl)c3)n2)nc(-c2ccc(Cl)cc2)n1C[C@H](O)C(F)(F)F (single isomer, unassigned) [Example 11] |
| 8.68 | 3.3 | 8.16 | CC(C)(O)c1nc(Cn2nc(-c3ccc(Cl)cc3)n(C[C@H](O)C(F)(F)F)c2=O)nn1-c1ccccc1Cl [Example 13, 5-(4-Chlorophenyl)-2-{[1-(2-chlorophenyl)-5-(2-hydroxypropan-2-yl)-1H-1,2,4-triazol-3-yl]methyl}-4-[(2S)-3,3,3-trifluoro-2-hydroxypropyl]-2,4-dihydro-3H-1,2,4-triazol-3-one] |
| 8.18 | 3.8 | 7.60 | CC(C)(O)c1nc(Cn2nc(-c3ccc(Cl)cc3)n(C[C@H](O)C(F)(F)F)c2=O)nn1-c1cccc(F)c1 [Example 1, 5-(4-Chlorophenyl)-2-{[1-(3-fluorophenyl)-5-(2-hydroxypropan-2-yl)-1H-1,2,4-triazol-3-yl]methyl}-4-[(2S)-3,3,3-trifluoro-2-hydroxypropyl]-2,4-dihydro-3H-1,2,4-triazol-3-one] |
| 8.26 | 45.8 | 6.60 | CC(O)(C(=O)O)c1nc(Cn2nc(-c3ccc(Cl)cc3)n(C[C@H](O)C(F)(F)F)c2=O)nn1-c1ccccc1Cl (single isomer, unassigned) [Example 16] |
| 9.10 | 2.4 | 8.72 | COc1ccccc1-n1nc(Cn2nc(-c3ccc(Cl)cc3)n(C[C@H](O)C(F)(F)F)c2=O)nc1C(C)(C)O [Example 3, 5-(4-Chlorophenyl)-2-{[5-(2-hydroxypropan-2-yl)-1-(2-methoxyphenyl)-1H-1,2,4-triazol-3-yl]methyl}-4-[(2S)-3,3,3-trifluoro-2-hydroxypropyl]-2,4-dihydro-3H-1,2,4-triazol-3-one] |
| 7.87 | 0.2 | 8.68 | O=c1n(Cc2nc(C(O)C(F)(F)F)n(-c3cccc(Cl)c3)n2)nc(-c2ccc(Cl)cc2)n1C[C@H](O)C(F)(F)F (mixture of isomers) [Example 10, 5-(4-Chlorophenyl)-2-{[1-(3-chlorophenyl)-5-(2,2,2-trifluoro-1-hydroxyethyl)-1H-1,2,4-triazol-3-yl]methyl}-4-[(2S)-3,3,3-trifluoro-2-hydroxypropyl]-2,4-dihydro-3H-1,2,4-triazol-3-one] |
| 9.05 | 28.2 | 7.60 | CC(C)C(O)c1nc(Cn2nc(-c3ccc(Cl)cc3)n(C[C@H](O)C(F)(F)F)c2=O)nn1-c1ccccc1Cl (single isomer, unassigned) [Example 9] |
| 8.80 | 2.6 | 8.38 | CCC(O)c1nc(Cn2nc(-c3ccc(Cl)cc3)n(C[C@H](O)C(F)(F)F)c2=O)nn1-c1ccccc1Cl (single isomer, unassigned) [Example 5] |
